# Data published in article PMC3478992, “Cloning and characterization of a novel 2-ketoisovalerate reductase from the beauvericin producer Fusarium proliferatum LF061” (BMC Biotechnology, 2012).
# Biological target: T1, KivRFp (2-ketoisovalerate reductase) (Fusarium proliferatum, UniProt I3VQI5)
# T1 construct: full length, 452 residues, 52 kDa, N-terminal His-tag (pET28a), codon-optimised synthetic gene, E. coli BL21(DE3), Ni-NTA purified
# Assay: spectrophotometric NADPH oxidation at […] nm
# Type: biochemical
# Conditions: 0.7 mM 2-Kiv, 50 mM sodium phosphate pH 7.0, 35 °C
# T1 sequence (I3VQI5 entry or part of it): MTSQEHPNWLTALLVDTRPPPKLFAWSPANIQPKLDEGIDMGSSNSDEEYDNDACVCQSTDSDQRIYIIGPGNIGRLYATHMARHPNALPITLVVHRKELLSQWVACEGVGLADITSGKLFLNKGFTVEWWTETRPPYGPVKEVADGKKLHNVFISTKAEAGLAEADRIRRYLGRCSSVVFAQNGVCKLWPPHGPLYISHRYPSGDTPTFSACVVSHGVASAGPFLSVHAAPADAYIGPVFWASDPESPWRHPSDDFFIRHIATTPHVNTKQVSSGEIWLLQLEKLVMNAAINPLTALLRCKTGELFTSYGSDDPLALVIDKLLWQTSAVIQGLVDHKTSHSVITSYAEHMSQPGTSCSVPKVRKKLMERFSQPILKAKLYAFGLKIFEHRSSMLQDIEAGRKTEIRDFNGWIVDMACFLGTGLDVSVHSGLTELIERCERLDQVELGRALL
smiles,measurement,setting,value
CC(C)C(=O)C(=O)O [2-Kiv],spectrophotometric NADPH oxidation at 340 nm,0.29 mM NADPH,The enzyme exhibited the highest activity towards 2-Kiv as substrate
NC(=O)C1=CN([C@@H]2O[C@H](COP(=O)(O)OP(=O)(O)OC[C@H]3O[C@@H](n4cnc5c(N)ncnc54)[C@H](OP(=O)(O)O)[C@@H]3O)[C@@H](O)[C@H]2O)C=CC1 [NADPH],spectrophotometric NADPH oxidation at 340 nm,,KivRFp showed higher coenzyme specificity with respect to NADPH than NADH
